Assay results from US5424456A, “N-arylalkylderivatives of 2-aminomethyl-2,3-dihydro-1,4-benzodioxine and the process of preparation thereof” (Vyzkumny Ustav Pro Farmacii A Biochemii s.p., priority 1991, dated 1995).
Each block holds one compound with its values, some of them ahead of it.

How the values were obtained:
blood pressure [1] = assay: Hypotensive activity, pentobarbital anaesthesized rabbits; type: in vivo, rabbit; details: i.v.
Excerpt: (§1) a) The blood pressure of pentobarbital anaesthesized rabbits was registered invasively in arteria femoralis. The average decrease in systolic (SBP) and diastolic (DBP) blood pressure expressed in per cents of the starting blood pressure level after intravenous and oral administration is shown in Tables 3 and 4.

α-adrenergic = biological target: T1, α-adrenergic (Rattus norvegicus, UniProt P23944); assay: α-adrenergic blocking activity, norepinephrine-induced contraction of helically cut rat aortic strip; details: 37° C., cumulative doses, read-out: IC50 (concentration causing 50% relaxation)
T1 construct: helically cut rat aortic strip; from tissue; host or cells: rat aorta (helically cut strip)
T1 sequence (P23944 1-561): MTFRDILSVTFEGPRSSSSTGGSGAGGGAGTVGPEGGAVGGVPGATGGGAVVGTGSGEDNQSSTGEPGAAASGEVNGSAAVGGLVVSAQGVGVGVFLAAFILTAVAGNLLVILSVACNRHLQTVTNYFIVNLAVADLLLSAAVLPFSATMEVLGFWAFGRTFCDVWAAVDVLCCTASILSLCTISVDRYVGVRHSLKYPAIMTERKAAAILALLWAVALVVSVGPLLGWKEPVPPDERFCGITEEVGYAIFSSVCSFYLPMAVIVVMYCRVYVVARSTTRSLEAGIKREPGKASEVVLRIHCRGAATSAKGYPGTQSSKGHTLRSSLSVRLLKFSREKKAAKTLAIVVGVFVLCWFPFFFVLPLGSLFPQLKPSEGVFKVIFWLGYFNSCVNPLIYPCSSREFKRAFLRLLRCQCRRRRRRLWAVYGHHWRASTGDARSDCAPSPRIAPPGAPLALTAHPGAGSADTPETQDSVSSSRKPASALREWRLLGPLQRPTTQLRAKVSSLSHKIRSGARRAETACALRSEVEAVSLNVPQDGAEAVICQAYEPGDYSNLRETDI
Method: a) The α-adrenergic blocking activity of the compounds was tested using a helically cut rat aortic strip in a Krebs-Henselheit solution at 37° C., bubbled with a mixture of 95% O2 and 5% CO2. Norepinephrine induced contractions were detected isometrically. The compounds were added in cumulative doses and the relaxing activity was expressed in per cents of the maximum norepinephrine contraction.

calcium channel = biological target: T2, calcium channel (Rattus norvegicus, UniProt P22002); assay: Calcium channel blocking activity, K+ depolarization-induced contraction of helically cut rat aortic strip; details: Krebs-Henselheit solution, 37° C., cumulative doses, read-out: IC50 (50% decrease of contraction of the aortic strip)
T2 construct: helically cut rat aortic strip; from tissue; host or cells: rat aorta (helically cut strip)
Method: The calcium channel blocking activity of the compounds was tested using a helically cut rat aortic strip in Krebs-Henselheit solution at 37° C., bubbled with a mixture of 95% O2 and 5% CO2. The isometrically registered contractions were induced by K^(+). depolarization. The test compounds were applied in a cumulative doses and the vasodilating activity thereof was expressed in calculated concentration of the test compound, causing 50% decrease of contraction of the aortic strip (IC50).

blood pressure [2] = assay: Hypotensive activity, pentobarbital anaesthesized dogs; type: in vivo, dog; details: i.v.
Excerpt: as §1, with “b) The” for “a) The”, “anaesthesized dogs” for “anaesthesized rabbits”, “(SBP) arid” for “(SBP) and”, “Tables 5” for “Tables 3”, “and 6.” for “and 4.”

[3] = system: rat peripheral venous thrombosis; assay: Antithrombotic activity, rat peripheral venous thrombosis in closed abdominal part of vena cava; type: in vivo; details: po, rats, orally, read-out: statistically significant effective dose (mass of thrombi)
Method: The antithrombotic activity of the test compounds was established using the model of rat peripheral venous thrombosis in a closed abdominal part of vena cava. The thrombus was induced by intravenous administration of hypotonic solution of sodium chloride. The thrombus was freed 10 minutes after induction and weighted. The mass of thrombi in control animals was compared to the mass of thrombi of animals administered by the test compound. The statistically significant effective dose for compound VUFB 17951 was 0.5 mg/kg intravenously and 5 mg/kg orally and for the compound VUFB 17959 0.25 mg/kg and 1.0 mg/kg, respectively. The corresponding dose of a standard (Cilostazol, generic name, Merck index, 11th Edition, 2277) was 25 mg/kg orally.

[4] = 0.4 mg/kg, value 1 of 5 (heads 5/30/60/180 min; probably 1 min)
[5] = 0.4 mg/kg, value 2 of 5 (heads 5/30/60/180 min; probably 5 min)
[6] = 0.4 mg/kg, value 3 of 5 (heads 5/30/60/180 min; probably 30 min)
[7] = 0.4 mg/kg, value 4 of 5 (heads 5/30/60/180 min; probably 60 min)
[8] = 0.4 mg/kg, value 5 of 5 (heads 5/30/60/180 min; probably 180 min)
[9] = 4.0 mg/kg, value 1 of 5 (heads 5/30/60/180 min; probably 1 min)
[10] = 4.0 mg/kg, value 2 of 5 (heads 5/30/60/180 min; probably 5 min)
[11] = 4.0 mg/kg, value 3 of 5 (heads 5/30/60/180 min; probably 30 min)
[12] = 4.0 mg/kg, value 4 of 5 (heads 5/30/60/180 min; probably 60 min)
[13] = 4.0 mg/kg, value 5 of 5 (heads 5/30/60/180 min; probably 180 min)
[14] = 4.5 mg/kg, value 1 of 5 (heads 5/30/60/180 min; probably 1 min)
[15] = 4.5 mg/kg, value 2 of 5 (heads 5/30/60/180 min; probably 5 min)
[16] = 4.5 mg/kg, value 3 of 5 (heads 5/30/60/180 min; probably 30 min)
[17] = 4.5 mg/kg, value 4 of 5 (heads 5/30/60/180 min; probably 60 min)
[18] = 4.5 mg/kg, value 5 of 5 (heads 5/30/60/180 min; probably 180 min)
[19] = 4.6 mg/kg, value 1 of 5 (heads 5/30/60/180 min; probably 1 min)
[20] = 4.6 mg/kg, value 2 of 5 (heads 5/30/60/180 min; probably 5 min)
[21] = 4.6 mg/kg, value 3 of 5 (heads 5/30/60/180 min; probably 30 min)
[22] = 4.6 mg/kg, value 4 of 5 (heads 5/30/60/180 min; probably 60 min)
[23] = 4.6 mg/kg, value 5 of 5 (heads 5/30/60/180 min; probably 180 min)

T2 sequence (P22002 whole entry): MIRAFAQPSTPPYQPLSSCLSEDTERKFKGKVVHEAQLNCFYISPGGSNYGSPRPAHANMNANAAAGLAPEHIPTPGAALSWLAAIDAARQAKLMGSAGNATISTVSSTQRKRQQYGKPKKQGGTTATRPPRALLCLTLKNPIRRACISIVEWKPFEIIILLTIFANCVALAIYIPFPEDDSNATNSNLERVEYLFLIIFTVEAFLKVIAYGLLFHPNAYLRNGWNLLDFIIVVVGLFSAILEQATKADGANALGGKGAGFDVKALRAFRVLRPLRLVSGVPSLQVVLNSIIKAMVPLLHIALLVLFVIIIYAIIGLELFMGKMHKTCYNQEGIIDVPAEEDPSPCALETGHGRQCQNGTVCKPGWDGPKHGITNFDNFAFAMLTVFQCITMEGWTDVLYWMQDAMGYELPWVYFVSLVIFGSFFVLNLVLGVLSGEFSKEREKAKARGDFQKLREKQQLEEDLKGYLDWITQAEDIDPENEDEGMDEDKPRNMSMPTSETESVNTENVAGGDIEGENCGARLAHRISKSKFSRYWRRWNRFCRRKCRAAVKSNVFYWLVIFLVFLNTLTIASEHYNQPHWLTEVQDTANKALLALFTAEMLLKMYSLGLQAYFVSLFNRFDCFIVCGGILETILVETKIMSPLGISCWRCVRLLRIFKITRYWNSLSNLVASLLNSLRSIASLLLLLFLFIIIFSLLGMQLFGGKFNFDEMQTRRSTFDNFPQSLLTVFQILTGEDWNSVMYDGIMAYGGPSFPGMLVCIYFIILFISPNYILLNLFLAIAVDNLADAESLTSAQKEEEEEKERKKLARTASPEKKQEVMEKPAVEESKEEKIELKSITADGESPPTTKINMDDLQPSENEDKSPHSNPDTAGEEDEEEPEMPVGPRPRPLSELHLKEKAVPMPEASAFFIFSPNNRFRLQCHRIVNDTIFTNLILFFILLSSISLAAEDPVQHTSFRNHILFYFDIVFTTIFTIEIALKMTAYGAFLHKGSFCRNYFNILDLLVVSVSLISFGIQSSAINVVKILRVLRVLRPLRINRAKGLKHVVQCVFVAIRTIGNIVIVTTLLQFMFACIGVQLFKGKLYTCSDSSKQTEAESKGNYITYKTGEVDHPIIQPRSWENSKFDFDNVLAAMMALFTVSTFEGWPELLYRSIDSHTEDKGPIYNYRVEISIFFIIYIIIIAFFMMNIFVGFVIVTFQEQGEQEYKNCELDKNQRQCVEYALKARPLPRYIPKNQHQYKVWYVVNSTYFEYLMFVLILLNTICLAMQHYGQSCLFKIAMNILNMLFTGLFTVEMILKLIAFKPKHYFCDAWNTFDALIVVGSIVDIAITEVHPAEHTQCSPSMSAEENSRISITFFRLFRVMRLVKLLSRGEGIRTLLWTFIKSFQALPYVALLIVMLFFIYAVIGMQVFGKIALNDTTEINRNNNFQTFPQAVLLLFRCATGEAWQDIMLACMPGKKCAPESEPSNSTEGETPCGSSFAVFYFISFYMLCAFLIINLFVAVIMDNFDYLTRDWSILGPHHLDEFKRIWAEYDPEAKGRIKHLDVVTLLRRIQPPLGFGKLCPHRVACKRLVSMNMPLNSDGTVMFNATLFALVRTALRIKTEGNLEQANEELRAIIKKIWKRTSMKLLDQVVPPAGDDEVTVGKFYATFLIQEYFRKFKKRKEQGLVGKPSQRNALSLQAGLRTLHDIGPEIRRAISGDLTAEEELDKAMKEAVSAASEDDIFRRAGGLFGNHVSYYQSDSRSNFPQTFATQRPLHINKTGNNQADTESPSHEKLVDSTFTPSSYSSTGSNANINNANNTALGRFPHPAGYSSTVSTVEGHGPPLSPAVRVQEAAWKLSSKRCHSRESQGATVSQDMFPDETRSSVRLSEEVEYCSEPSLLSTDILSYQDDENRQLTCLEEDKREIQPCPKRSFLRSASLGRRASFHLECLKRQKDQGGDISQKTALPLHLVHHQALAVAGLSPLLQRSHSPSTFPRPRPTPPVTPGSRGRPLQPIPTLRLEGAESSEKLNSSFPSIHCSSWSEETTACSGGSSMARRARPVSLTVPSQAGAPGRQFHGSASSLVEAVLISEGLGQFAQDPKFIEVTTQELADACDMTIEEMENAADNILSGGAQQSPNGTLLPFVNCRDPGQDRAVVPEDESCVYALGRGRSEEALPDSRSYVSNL
T2 sequence (P54290 25-1091 partner): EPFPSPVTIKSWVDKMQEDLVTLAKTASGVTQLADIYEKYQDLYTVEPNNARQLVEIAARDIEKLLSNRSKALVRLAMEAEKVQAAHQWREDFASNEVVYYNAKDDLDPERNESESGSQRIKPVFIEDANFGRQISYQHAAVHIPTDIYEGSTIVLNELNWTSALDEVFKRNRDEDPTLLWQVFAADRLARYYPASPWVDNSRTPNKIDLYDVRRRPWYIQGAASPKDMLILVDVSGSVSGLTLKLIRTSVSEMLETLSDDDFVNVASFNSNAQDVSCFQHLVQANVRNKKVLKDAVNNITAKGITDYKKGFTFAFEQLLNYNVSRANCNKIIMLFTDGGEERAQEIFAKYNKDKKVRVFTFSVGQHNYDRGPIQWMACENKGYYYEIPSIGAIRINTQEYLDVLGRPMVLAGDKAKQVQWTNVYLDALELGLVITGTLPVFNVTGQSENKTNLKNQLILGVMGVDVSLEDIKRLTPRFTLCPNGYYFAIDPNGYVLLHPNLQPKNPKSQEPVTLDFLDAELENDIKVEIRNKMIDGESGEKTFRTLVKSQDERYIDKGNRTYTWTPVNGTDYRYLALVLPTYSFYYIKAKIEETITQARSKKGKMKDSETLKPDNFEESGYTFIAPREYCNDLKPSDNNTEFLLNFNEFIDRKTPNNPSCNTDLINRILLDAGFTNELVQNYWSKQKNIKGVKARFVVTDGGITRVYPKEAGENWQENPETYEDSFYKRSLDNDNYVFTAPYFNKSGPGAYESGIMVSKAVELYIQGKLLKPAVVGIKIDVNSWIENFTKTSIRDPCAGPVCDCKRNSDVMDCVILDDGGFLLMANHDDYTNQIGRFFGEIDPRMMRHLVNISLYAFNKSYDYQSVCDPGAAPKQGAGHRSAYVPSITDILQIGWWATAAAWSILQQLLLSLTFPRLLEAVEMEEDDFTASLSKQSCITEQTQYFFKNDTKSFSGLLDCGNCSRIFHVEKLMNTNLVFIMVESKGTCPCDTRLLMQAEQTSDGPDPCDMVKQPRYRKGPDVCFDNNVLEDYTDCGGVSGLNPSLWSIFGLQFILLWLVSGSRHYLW

Compound: COc1ccc(C(C#N)(CCCNCC2COc3ccccc3O2)C(C)C)cc1OC (single isomer, unassigned) [VUFB 18019, 5-[(+)-2,3-dihydro-1,4-benzodioxin-2-ylmethylamino]-2-(3,4-dimethoxyphenyl)-2-isopropyl valeronitrile]
IC50 (calcium channel): 16 µM
decrease in diastolic blood pressure (DBP) (blood pressure [2]; [19]): -54 per cents
decrease in systolic blood pressure (SBP) (blood pressure [2]; [19]): -17 per cents
decrease in diastolic blood pressure (DBP) (blood pressure [2]; [20]): -32 per cents
decrease in systolic blood pressure (SBP) (blood pressure [2]; [20]): -32 per cents
decrease in diastolic blood pressure (DBP) (blood pressure [2]; [21]): -8 per cents
decrease in systolic blood pressure (SBP) (blood pressure [2]; [21]): -26 per cents
decrease in diastolic blood pressure (DBP) (blood pressure [2]; [22]): -14 per cents
decrease in systolic blood pressure (SBP) (blood pressure [2]; [22]): -16 per cents
decrease in diastolic blood pressure (DBP) (blood pressure [2]; [23]): -8 per cents
decrease in systolic blood pressure (SBP) (blood pressure [2]; [23]): -14 per cents

Compound: COc1ccc(C(C#N)(CCCNCC2COc3ccccc3O2)C(C)C)cc1OC (single isomer, unassigned) [VUFB 18020, 5-[(-)-2,3-dihydro-1,4-benzodioxin-2-ylmethylamino]-2-(3,4-dimeth-oxyphenyl)-2-isopropyl valeronitrile]
IC50 (calcium channel): 25 µM
decrease in diastolic blood pressure (DBP) (blood pressure [2]; [19]): -63 per cents
decrease in systolic blood pressure (SBP) (blood pressure [2]; [19]): -46 per cents
decrease in diastolic blood pressure (DBP) (blood pressure [2]; [20]): -63 per cents
decrease in systolic blood pressure (SBP) (blood pressure [2]; [20]): -58 per cents
decrease in diastolic blood pressure (DBP) (blood pressure [2]; [21]): -45 per cents
decrease in systolic blood pressure (SBP) (blood pressure [2]; [21]): -43 per cents
decrease in diastolic blood pressure (DBP) (blood pressure [2]; [22]): -37 per cents
decrease in systolic blood pressure (SBP) (blood pressure [2]; [22]): -35 per cents
decrease in diastolic blood pressure (DBP) (blood pressure [2]; [23]): -34 per cents
decrease in systolic blood pressure (SBP) (blood pressure [2]; [23]): -40 per cents

Compound: O=C1CCc2cc(OCCCCc3nnnn3C3CCCCC3)ccc2N1 [Cilostazol, reference compound]
minimal effective dose [3]: 25 mg/kg

More lines, main results first:

IC50 (α-adrenergic): 76 µM
IC50 (calcium channel): 8.5 µM
Compound: CC(C)C(C#N)(CCCNCC1COc2ccccc2O1)c1ccccc1 (racemic) [VUFB 18087, 5-(2,3-dihydro-1,4-benzodioxin-2-ylmethylamino)-2-phenyl-2-isopropyl valeronitrile]
decrease in diastolic blood pressure (DBP) (blood pressure [1]; 0.4 mg/kg, 1 min): -32 per cents
decrease in systolic blood pressure (SBP) (blood pressure [1]; 0.4 mg/kg, 1 min): -10 per cents
decrease in diastolic blood pressure (DBP) (blood pressure [1]; 0.4 mg/kg, 5 min): -16 per cents
decrease in systolic blood pressure (SBP) (blood pressure [1]; 0.4 mg/kg, 5 min): -19 per cents
decrease in diastolic blood pressure (DBP) (blood pressure [1]; 0.4 mg/kg, 30 min): -18 per cents
decrease in systolic blood pressure (SBP) (blood pressure [1]; 0.4 mg/kg, 30 min): -17 per cents
decrease in diastolic blood pressure (DBP) (blood pressure [1]; 0.4 mg/kg, 60 min): -16 per cents
decrease in systolic blood pressure (SBP) (blood pressure [1]; 0.4 mg/kg, 60 min): -17 per cents
decrease in diastolic blood pressure (DBP) (blood pressure [1]; 0.4 mg/kg, 180 min): -8 per cents
decrease in systolic blood pressure (SBP) (blood pressure [1]; 0.4 mg/kg, 180 min): -14 per cents
decrease in diastolic blood pressure (DBP) (blood pressure [1]; 4.0 mg/kg, 1 min): -58 per cents
decrease in systolic blood pressure (SBP) (blood pressure [1]; 4.0 mg/kg, 1 min): -45 per cents
decrease in diastolic blood pressure (DBP) (blood pressure [1]; 4.0 mg/kg, 5 min): -43 per cents
decrease in systolic blood pressure (SBP) (blood pressure [1]; 4.0 mg/kg, 5 min): -45 per cents
decrease in diastolic blood pressure (DBP) (blood pressure [1]; 4.0 mg/kg, 30 min): -29 per cents
decrease in systolic blood pressure (SBP) (blood pressure [1]; 4.0 mg/kg, 30 min): -30 per cents
decrease in diastolic blood pressure (DBP) (blood pressure [1]; 4.0 mg/kg, 60 min): -29 per cents
decrease in systolic blood pressure (SBP) (blood pressure [1]; 4.0 mg/kg, 60 min): -31 per cents
decrease in diastolic blood pressure (DBP) (blood pressure [1]; 4.0 mg/kg, 180 min): -32 per cents
decrease in systolic blood pressure (SBP) (blood pressure [1]; 4.0 mg/kg, 180 min): -28 per cents
decrease in diastolic blood pressure (DBP) (blood pressure [2]; [4]): -37 per cents
decrease in systolic blood pressure (SBP) (blood pressure [2]; [4]): -33 per cents
decrease in diastolic blood pressure (DBP) (blood pressure [2]; [5]): -27 per cents
decrease in systolic blood pressure (SBP) (blood pressure [2]; [5]): -29 per cents
decrease in diastolic blood pressure (DBP) (blood pressure [2]; [6]): -27 per cents
decrease in systolic blood pressure (SBP) (blood pressure [2]; [6]): -29 per cents
decrease in diastolic blood pressure (DBP) (blood pressure [2]; [7]): -13 per cents
decrease in systolic blood pressure (SBP) (blood pressure [2]; [7]): -19 per cents
decrease in diastolic blood pressure (DBP) (blood pressure [2]; [8]): -13 per cents
decrease in systolic blood pressure (SBP) (blood pressure [2]; [8]): -4 per cents
decrease in diastolic blood pressure (DBP) (blood pressure [2]; [9]): -62 per cents
decrease in systolic blood pressure (SBP) (blood pressure [2]; [9]): -49 per cents
decrease in diastolic blood pressure (DBP) (blood pressure [2]; [10]): -31 per cents
decrease in systolic blood pressure (SBP) (blood pressure [2]; [10]): -32 per cents
decrease in diastolic blood pressure (DBP) (blood pressure [2]; [11]): -31 per cents
decrease in systolic blood pressure (SBP) (blood pressure [2]; [11]): -31 per cents
decrease in diastolic blood pressure (DBP) (blood pressure [2]; [12]): -26 per cents
decrease in systolic blood pressure (SBP) (blood pressure [2]; [12]): -27 per cents
decrease in diastolic blood pressure (DBP) (blood pressure [2]; [13]): -26 per cents
decrease in systolic blood pressure (SBP) (blood pressure [2]; [13]): -22 per cents

IC50 (calcium channel): 15 µM
Compound: Cc1ccccc1C(C#N)(CCCNCC1COc2ccccc2O1)C(C)C (single isomer, unassigned) [VUFB 18007, 5-[(+)-2,3-dihydro-1,4-benzodioxin-2-ylmethylamino]-2-isopropyl-2- -(2-methylphenyl) valeronitrite]
decrease in diastolic blood pressure (DBP) (blood pressure [2]; [14]): -66 per cents
decrease in systolic blood pressure (SBP) (blood pressure [2]; [14]): -47 per cents
decrease in diastolic blood pressure (DBP) (blood pressure [2]; [15]): -41 per cents
decrease in systolic blood pressure (SBP) (blood pressure [2]; [15]): -33 per cents
decrease in diastolic blood pressure (DBP) (blood pressure [2]; [16]): -25 per cents
decrease in systolic blood pressure (SBP) (blood pressure [2]; [16]): -27 per cents
decrease in diastolic blood pressure (DBP) (blood pressure [2]; [17]): -19 per cents
decrease in systolic blood pressure (SBP) (blood pressure [2]; [17]): -22 per cents
decrease in diastolic blood pressure (DBP) (blood pressure [2]; [18]): -12 per cents
decrease in systolic blood pressure (SBP) (blood pressure [2]; [18]): -17 per cents

IC50 (calcium channel): 15 µM
Compound: Cc1ccccc1C(C#N)(CCCNCC1COc2ccccc2O1)C(C)C (single isomer, unassigned) [VUFB 18018, 5-[(-)-2,3-dihydro-1,4-benzodioxin-2-ylmethylamino]-2-isopropyl-2- -(2-methylphenyl) valeronitrile]
decrease in diastolic blood pressure (DBP) (blood pressure [2]; [14]): -54 per cents
decrease in systolic blood pressure (SBP) (blood pressure [2]; [14]): -40 per cents
decrease in diastolic blood pressure (DBP) (blood pressure [2]; [15]): -46 per cents
decrease in systolic blood pressure (SBP) (blood pressure [2]; [15]): -42 per cents
decrease in diastolic blood pressure (DBP) (blood pressure [2]; [16]): -29 per cents
decrease in systolic blood pressure (SBP) (blood pressure [2]; [16]): -30 per cents
decrease in diastolic blood pressure (DBP) (blood pressure [2]; [17]): -24 per cents
decrease in systolic blood pressure (SBP) (blood pressure [2]; [17]): -22 per cents
decrease in diastolic blood pressure (DBP) (blood pressure [2]; [18]): -22 per cents
decrease in systolic blood pressure (SBP) (blood pressure [2]; [18]): -21 per cents
